From patent publication US12617831B2 (UNIVERSITE D'ANGERS, priority 2019, dated 2026)

Legend:
human GLP-2r = target: T1, human GLP-2r (Homo sapiens, UniProt O95838); test: Cyclic AMP assay (FRET, H74 probe), HEK-293 transfected with human GLP-2r; type: cell-based; conditions: HEK 293 transfected only with human GLP-2r, 10^-9 M, 30 min (FIG. 17)
T1 construct: host or cells: HEK-293
T1 sequence (O95838 1-553): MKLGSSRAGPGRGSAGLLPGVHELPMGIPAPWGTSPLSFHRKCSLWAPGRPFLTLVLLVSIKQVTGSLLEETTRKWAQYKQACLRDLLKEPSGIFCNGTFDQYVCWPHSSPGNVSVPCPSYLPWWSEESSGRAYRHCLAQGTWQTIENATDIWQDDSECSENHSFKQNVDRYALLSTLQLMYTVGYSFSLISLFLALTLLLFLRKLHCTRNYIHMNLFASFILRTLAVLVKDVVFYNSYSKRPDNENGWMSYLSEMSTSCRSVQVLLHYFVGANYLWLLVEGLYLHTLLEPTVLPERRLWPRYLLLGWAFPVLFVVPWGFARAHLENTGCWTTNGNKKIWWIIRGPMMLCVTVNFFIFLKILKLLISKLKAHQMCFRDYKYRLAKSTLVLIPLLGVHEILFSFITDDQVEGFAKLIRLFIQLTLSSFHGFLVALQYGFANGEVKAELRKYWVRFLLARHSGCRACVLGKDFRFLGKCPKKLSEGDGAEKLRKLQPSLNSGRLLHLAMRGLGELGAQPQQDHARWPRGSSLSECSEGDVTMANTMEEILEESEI
Method: Human HEK-293 cells were plated at a density of 2×10^5 cells/cm^2 in 4 well microslides (ibidi GmbH, Martinsried, Germany). […] Jalink (Netherland Cancer Institute, Amsterdam, Netherland). […] The image acquisition was performed with a 63 X, 1.4 N.A. oil immersion objective and a Hybrid® detector (Leica) and images were collected after 30 minutes. Donor excitation was made with a 458 nm Ar laser, donor emission was collected between 460-505 nm and acceptor emission between 520-600 nm by setting the SP8 spectrometer accordingly. FRET was expressed as the ratio between donor and acceptor signals.

Murine Raw 264.7 cells = test: Raw264.7 cell-mediated osteoclast formation in vitro (Example 2); type: cell-based; conditions: 10 ng/ml soluble murine RANKL, 110 h, TRAcP staining
Excerpt: TRAcP positive cells, with more than three nuclei, were identified as osteoclasts.

[1] = test system: ovariectomy-induced bone loss in mice; test: Trabecular bone microarchitecture, fifth lumbar vertebra, ovariectomized mice; type: in vivo; conditions: OVX mice, L5, 25 nmoles/kg/day, vs vehicle
Method: At 16 weeks of age, ALZET osmotic pumps (model number 2006, Durect Corp., Cupertino, CA) filled with the below saline or peptide were implanted subcutaneously between the two scapula under general anesthesia in 32 mice. Successful filling of pumps was verified by weighting the pump before and after filling. At 20 weeks of age, ALZET osmotic pumps were replaced by similar pumps to ensure delivery for four new weeks. […] This dose and regimen of zoledronic acid was equivalent to the 5 mg infusion approved for the treatment of post-menopausal osteoporosis in humans. Analyses of vertebral bodies of the fifth lumbar vertebra (L5) were performed with a Nanotom nanotomograph (Phoenix, GE, USA) operated at 85 kV, 220 μA, 1000 ms integration time. The isotropic pixel size was fixed at 4 μm, the rotation step at 0.25° and exposure was done with a 0.1 mm copper filter. Each 3D reconstruction image dataset was binarized using global thresholding. Trabecular volume of interest was computerized on coronal sections of the L5 vertebral body. Trabecular VOI was spread over the entire vertebral body excluding the first and last 80 μm from the anterior and posterior cortical wall. All microCT/NanoCT parameters were determined according to guidelines and nomenclature proposed by the American Society for Bone and Mineral Research (Bouxsein et al., 2010).

Structure (SMILES) | intracellular levels of cAMP (human GLP-2r) | IC50 (Murine Raw 264.7 cells) [nM] | reduction in trabecular spacing [1] [%]
CC[C@H](C)[C@H](NC(=O)[C@H](CO)NC(=O)[C@H](CCSC)NC(=O)[C@H](CC(=O)O)NC(=O)[C@H](CO)NC(=O)CNC(=O)[C@H](Cc1ccccc1)NC(=O)[C@H](CO)NC(=O)CNC(=O)[C@H](CCC(=O)O)NC(=O)CNC(=O)[C@@H](N)Cc1c[nH]cn1)C(=O)N[C@@H](C)C(=O)N[C@@H](CC(C)C)C(=O)N[C@@H](CC(=O)O)C(=O)N[C@@H](CCCCN)C(=O)N[C@@H](CC(C)C)C(=O)N[C@@H](C)C(=O)N[C@@H](C)C(=O)N[C@@H](CCCNC(=N)N)C(=O)N[C@@H](CC(=O)O)C(=O)N[C@@H](Cc1ccccc1)C(=O)N[C@H](C(=O)N[C@@H](CC(N)=O)C(=O)N[C@@H](Cc1c[nH]c2ccccc12)C(=O)N[C@@H](CC(C)C)C(=O)N[C@@H](CC(C)C)C(=O)N[C@@H](CCC(N)=O)C(=O)N[C@H](C(=O)N[C@@H](CCCCN)C(=O)N[C@H](C(=O)N[C@H](C(=O)N[C@@H](CC(=O)O)C(=O)O)[C@@H](C)O)[C@@H](C)CC)[C@@H](C)O)C(C)C [GL-0001] | increased intracellular levels of cAMP | 0.0182 ± 0.0056 | 
CC[C@H](C)[C@H](NC(=O)[C@H](CO)NC(=O)[C@H](Cc1ccccc1)NC(=O)[C@H](CC(=O)O)NC(=O)[C@H](CO)NC(=O)CNC(=O)[C@H](Cc1ccccc1)NC(=O)[C@H](CO)NC(=O)CNC(=O)[C@H](CCC(=O)O)NC(=O)CNC(=O)[C@@H](N)Cc1c[nH]cn1)C(=O)N[C@@H](C)C(=O)N[C@@H](CC(C)C)C(=O)N[C@@H](CC(=O)O)C(=O)N[C@@H](CCCCN)C(=O)N[C@@H](CC(C)C)C(=O)N[C@@H](C)C(=O)N[C@@H](C)C(=O)N[C@@H](CCCNC(=N)N)C(=O)N[C@@H](CC(=O)O)C(=O)N[C@@H](Cc1ccccc1)C(=O)N[C@H](C(=O)N[C@@H](CC(N)=O)C(=O)N[C@@H](Cc1c[nH]c2ccccc12)C(=O)N[C@@H](CC(C)C)C(=O)N[C@@H](CC(C)C)C(=O)N[C@@H](CCC(N)=O)C(=O)N[C@H](C(=O)N[C@@H](CCCCN)C(N)=O)[C@@H](C)O)C(C)C [GL-0007] |  |  | 17
